In patent US11034654B2, “2,3-dihydroisoindole-1-carboxamides useful as ROR-gamma modulators” (AstraZeneca AB, priority 2017, dated 2021):

Legend:
[1] = molecular target: T1, RORγ ligand binding domain (Homo sapiens, UniProt P51449); assay: RORγ radioligand competition binding assay (SPA); settings: competition with tritiated 2-(4-(ethylsulfonyl)phenyl)-N-(4-(2-(methoxymethyl)phenyl)thiophen-2-yl)acetamide (25 nM), hRORγ LBD
From the text: RORγ Radioligand Competition Binding Assay The aim of this assay is to identify compounds which bind to the RORγ ligand binding domain, by competing with tritiated 2-(4-(ethylsulfonyl)phenyl)-N-(4-(2-(methoxymethyl)phenyl)thiophen-2-yl)acetamide. Human RORγ (Ligand Binding Domain (RORγ LBD) was expressed in E. coli (BL21DE3 Star) as a fusion protein: N-6×HN-Avi-GST-TCS-hRORγ LBD (S258-K518) subcloned into pET24a(+). The LBD (258-518) is underlined in the protein sequence: The scintillation proximity assay (SPA) was run in white polystyrene flat-bottom 384-well plates (Greiner, cat. No. 781075). Assays were carried out in 40 μl reaction volumes. Various concentrations of test ligands in 0.4 microlitres of DMSO were added to assay plates using an acoustic liquid dispenser. 4 nM purified N-(HN)6-GST-TCS-hRORγ (258-518) was mixed with 40 micrograms Yttrium oxide (YOx) glutathione SPA imaging beads in assay buffer (20 mM Tris, 150 mM NaCl, 10% Glycerol, 0.25% CHAPS, 1 mM TCEP) prior to adding 30 microlitres to test ligands. Assay plates were incubated for one hour at room temperature before adding 10 microlitres tritiated 2-(4-(ethylsulfonyl)phenyl)-N-(4-(2-(methoxymethyl)phenyl)thiophen-2-yl)acetamide to test plates in assay buffer (final concentration, 25 nM). Test plates were incubated for 16 hours and read using a LEADseeker Multimodality imaging instrument. The raw data was analysed and IC50 and Ki values for the compounds were calculated using Genedata Screener software. Raw data was transformed to % effect using equation 1: Compound % effect=100*[(X−min)/(max−min)], where X represents the normalized value for the compound based on the Min (vehicle) and Max (reference compound) inhibition controls. The concentration of test ligand that inhibited radioligand binding by 50% (i.e., the IC50) was calculated by plotting the % effect versus test ligand concentration and fitting the data using the Genedata Screener Smart fit algorithm. Ki is calculated from the IC50 value using the equation Ki=IC50/1+[L]/Kd) where [L]=25 nmol/L and Kd=17 nmol/L

human TH17 cells = assay: Inhibition of IL-17 release from human TH17 cells; type: cell-based; settings: 96 h; isolated human TH17 cells cultured 4 days, IL-17A in supernatant by HTRF; read-out: pIC50 IL-17 release (converted)
From the text: Inhibition of IL-17 Release from Human TH17 Cells
This test is designed to screen compounds for their inhibitory effect on the release of IL-17 from isolated and cultured human TH17 cells.
Peripheral blood mononuclear cells (PBMC) were isolated from heparin treated human whole blood from healthy donors by density gradient centrifugation. TH17 cells (CD4+CXCR3−CCR6+) were enriched using a human TH17 Cell Enrichment Kit (Stemcell Technologies) according to the manufacturer's protocol. The isolated TH17 cells were activated with aCD3aCD28 beads (MACS Miltenyi) and cultured in X-Vivo15 medium (Lonza) supplemented with L-glutamine, β-mercaptoethanol and a cytokine cocktail consisting of; IL-2, IL-23, IL-1β, IL-6, TGF-β. Cells were seeded at 8000 cells/well in a 384-plate (Corning, #3707) in the presence of compounds or DMSO and cultured for 4 days (37° C., 5% CO2). On day 4 supernatants were collected and IL-17A was measured using a Human IL-17 HTRF Assay kit (Cisbio Bioassays) according to the manufacturer's protocol. The IC50 values for the tested compounds was calculated using Genedata Screener® software (Genedata) using the following calculation method; Compound % effect=100*[(X−min)/(max−min)], where X represents the normalized value for the compound based on the Min (DMSO) and Max (compound 3-(1,3-benzodioxol-5-yl)-1-(3,5-dimethylpiperidin-1-yl)-3-(2-hydroxy-4,6-dimethoxyphenyl)propan-1-one at 10 μM, described in J. R. Hu et al. ACS Med. Chem. Lett. 2013, 4, 79-84) inhibition controls. Results

[2] = molecular target: T1, RORγ ligand binding domain; assay: RORγ co-factor recruitment assay (FRET); type: biochemical; set-up: made in house; host or cells: E. coli BL21DE3 Star; settings: inhibition of recruitment of SRC-1 peptide (NCOA1_677-700) to hRORγ LBD, HTRF read-out
From the text: RORγ Co-Factor Recruitment Assay A high throughput coactivator binding assay for the identification of inverse agonists of the recruitment of peptide SRC-1 (NCOA1_677-_700) to the RORγ ligand binding domain was established. The ligand binding domain (LBD) of human RORγ was expressed in E. coli (BL21DE3 Star) as a fusion protein: N-6×HN-MBP-Avi-TCS-hRORγLBD(P260-K518) subcloned into pET24a(+). The LBD (P260-K518) is underlined in the protein sequence: The assay was run in black 384 well plates (Greiner cat no: 784900). Various concentrations of test ligands in 0.1 microlitres DMSO were dispensed to assay plates using an Echo acoustic dispenser. Two pre-mixes were prepared and incubated for 1 h at room temp in the dark. Pre-mix 1 comprised 100 nM Protein (Biotinylated HN-Avi-MBP-TCS-hRORγ (258-518)) and 60 nM Streptavidin APC in assay buffer, 50 mM MOPS pH7.4, 50 mM KF, 0.003% (w/v) CHAPS, 10 mM DTT and 0.01% (w/v) BSA and pre-mix 2 comprised 160 nM biotinylated SRC-1 peptide (NCOA1-677-700) and 20 nM Europium-W8044 labelled Streptavidin in assay buffer. Five microlitres of pre-mix 2 was dispensed to assay plates containing 0.1 microlitres of test compound and was incubated for 15 min prior to adding five microlitres of pre-mix 1. Plates were incubated at rt for 1 hour in the dark, prior to reading in a Pherastar multi-mode plate reader using HTRF filter set (ex 320, em 612 and 665). The FRET signal at 665 nm was divided by the signal at 612 nm and multiplied by 10,000 to generate a signal ratio value for each well. The raw data was transformed to % effect using the equation: Compound % effect=100*[(X−min)/(max−min)], where X represents the normalized value for the compound based on the Min (vehicle) and Max (reference compound) inhibition control. The concentration of test ligand that inhibited the activity by 50% (i.e., the IC50) was calculated by plotting the % effect versus test ligand concentration and fitting the data using the Genedata Screener Smart fit algorithm.

| SMILES | IC50 [1] [µM] | IC50 (human TH17 cells) [µM] | IC50 [2] [µM] |
| --- | --- | --- | --- |
| CS(=O)(=O)c1ccc2c(c1)CNC2C(=O)Nc1ccc(C(C#N)(C(F)(F)F)C(F)(F)F)cc1 (stereo not drawn) [Example 1, N-[4-(2-Cyano-1,1,1,3,3,3-hexafluoropropan-2-yl)phenyl]-5-(methylsulfonyl)-2,3-dihydro-1H-isoindole-1-carboxamide] | 0.2 | 0.1 | 0.126 |
| CC(=O)N1Cc2cc(S(C)(=O)=O)ccc2C1C(=O)Nc1ccc(C(C#N)(C(F)(F)F)C(F)(F)F)cc1 (stereo not drawn) [Example 2, 2-Acetyl-N-[4-(2-cyano-1,1,1,3,3,3-hexafluoropropan-2-yl)phenyl]-5-(methylsulfonyl)-2,3-dihydro-1H-isoindole-1-carboxamide] | 0.0158 | 0.01 | 0.126 |
| COC1(C(=O)N2Cc3cc(S(C)(=O)=O)ccc3C2C(=O)Nc2ccc(C(C#N)(C(F)(F)F)C(F)(F)F)cc2)CC1 (stereo not drawn) [Example 3, N-[4-(2-Cyano-1,1,1,3,3,3-hexafluoropropan-2-yl)phenyl]-2-[(1-methoxycyclopropyl)carbonyl]-5-(methylsulfonyl)-2,3-dihydro-1H-isoindole-1-carboxamide] | 0.02 | 0.0158 | 0.251 |
| CNC(=O)N1Cc2cc(S(C)(=O)=O)ccc2C1C(=O)Nc1ccc(C(C#N)(C(F)(F)F)C(F)(F)F)cc1 (stereo not drawn) [Example 4, N^1-[4-(2-Cyano-1,1,1,3,3,3-hexafluoropropan-2-yl)phenyl]-N^2-methyl-5-(methylsulfonyl)-1,3-dihydro-2H-isoindole-1,2-dicarboxamide] | 0.0126 | 0.00794 | 0.0631 |
| CS(=O)(=O)c1ccc2c(c1)CN(C(=O)CO)C2C(=O)Nc1ccc(C(C#N)(C(F)(F)F)C(F)(F)F)cc1 (stereo not drawn) [Example 5, N-[4-(2-Cyano-1,1,1,3,3,3-hexafluoropropan-2-yl)phenyl]-2-(hydroxyacetyl)-5-(methylsulfonyl)-2,3-dihydro-1H-isoindole-1-carboxamide] | 0.0126 | 0.01 | 0.0501 |
| N#CC(c1ccc(NC(=O)C2NCc3cc(S(=O)(=O)CC4CC4)ccc32)cc1)(C(F)(F)F)C(F)(F)F (stereo not drawn) [Example 12, N-[4-(2-Cyano-1,1,1,3,3,3-hexafluoropropan-2-yl)phenyl]-5-[(cyclopropylmethyl)sulfonyl]-2,3-dihydro-1H-isoindole-1-carboxamide] | 0.00794 | 0.0251 | 0.1 |
| CC(=O)N1Cc2cc(S(=O)(=O)CC3CC3)ccc2C1C(=O)Nc1ccc(C(C#N)(C(F)(F)F)C(F)(F)F)cc1 (stereo not drawn) [Example 13, 2-Acetyl-N-[4-(2-cyano-1,1,1,3,3,3-hexafluoropropan-2-yl)phenyl]-5-[(cyclopropylmethyl)sulfonyl]-2,3-dihydro-1H-isoindole-1-carboxamide] | 0.00631 | 0.00501 | 0.0631 |
| CCS(=O)(=O)c1ccc2c(c1)CN(C(C)=O)C2C(=O)Nc1ccc(C(C#N)(C(F)(F)F)C(F)(F)F)cc1 (stereo not drawn) [Example 14, 2-Acetyl-N-[4-(2-cyano-1,1,1,3,3,3-hexafluoropropan-2-yl)phenyl]-5-(ethylsulfonyl)-2,3-dihydro-1H-isoindole-1-carboxamide] | 0.00501 | 0.00251 | 0.0398 |
| CC(=O)N1Cc2cc(S(C)(=O)=O)ccc2C1C(=O)Nc1ccc(C(N2CCCC2)(C(F)(F)F)C(F)(F)F)cc1 (stereo not drawn) [Example 15, 2-Acetyl-N-{4-[1,1,1,3,3,3-hexafluoro-2-(pyrrolidin-1-yl)propan-2-yl]phenyl}-5-(methylsulfonyl)-2,3-dihydro-1H-isoindole-1-carboxamide] | 0.00501 | 0.00398 | 0.0398 |
| COCCNC(c1ccc(NC(=O)C2c3ccc(S(C)(=O)=O)cc3CN2C(C)=O)cc1)(C(F)(F)F)C(F)(F)F (stereo not drawn) [Example 17, 2-Acetyl-N-(4-{1,1,1,3,3,3-hexafluoro-2-[(2-methoxyethyl)amino]propan-2-yl}phenyl)-5-(methylsulfonyl)-2,3-dihydro-1H-isoindole-1-carboxamide] | 0.0316 | 0.02 | 0.1 |
| COC1(CNC(c2ccc(NC(=O)C3c4ccc(S(C)(=O)=O)cc4CN3C(C)=O)cc2)(C(F)(F)F)C(F)(F)F)CC1 (stereo not drawn) [Example 18, 2-Acetyl-N-[4-(1,1,1,3,3,3-hexafluoro-2-{[(1-methoxycyclopropyl)methyl]amino}propan-2-yl)phenyl]-5-(methylsulfonyl)-2,3-dihydro-1H-isoindole-1-carboxamide] | 0.0501 | 0.0251 | 0.2 |
| CC(=O)N1Cc2cc(S(C)(=O)=O)ccc2C1C(=O)Nc1ccc(C(NC2COC2)(C(F)(F)F)C(F)(F)F)cc1 (stereo not drawn) [Example 19, 2-Acetyl-N-{4-[1,1,1,3,3,3-hexafluoro-2-(oxetan-3-ylamino)propan-2-yl]phenyl}-5-(methylsulfonyl)-2,3-dihydro-1H-isoindole-1-carboxamide] | 0.126 | 0.0501 | 0.1 |
| CC(=O)N1Cc2cc(S(C)(=O)=O)ccc2C1C(=O)Nc1ccc(C(NC2CCOCC2)(C(F)(F)F)C(F)(F)F)cc1 (stereo not drawn) [Example 20, 2-Acetyl-N-{4-[1,1,1,3,3,3-hexafluoro-2-(tetrahydro-2H-pyran-4-ylamino)propan-2-yl]phenyl}-5-(methylsulfonyl)-2,3-dihydro-1H-isoindole-1-carboxamide] | 0.1 | 0.0501 | 0.1 |
| CC(=O)N1Cc2cc(S(C)(=O)=O)ccc2C1C(=O)Nc1ccc(C(NCCO)(C(F)(F)F)C(F)(F)F)cc1 (stereo not drawn) [Example 21, 2-Acetyl-N-(4-{1,1,1,3,3,3-hexafluoro-2-[(2-hydroxyethyl)amino]propan-2-yl}phenyl)-5-(methylsulfonyl)-2,3-dihydro-1H-isoindole-1-carboxamide] | 0.316 | 0.1 | 0.126 |
